Measurements as given in patent US20250127907A1, “PARP INHIBITORS” (Stablix, Inc., priority 2023, published 2025).
Where two headings read alike, the source gives them in different places.

Columns and labels:
[1] = test system: Poly/Mono-ADP Ribose in U2OS cells; assay: PAR in cell western assay (parylation) in U2OS cells; format: cell-based; conditions: read-out: Parylation (U2OS)
Procedure: U2OS cells are seeded at 2667 cells per well in 24 ul medium into poly-D lysine-coated 384 well plate and incubated in the TC incubator for O/N
The next day, test comps are diluted in a source plate and 6 μL of the diluted comp is added to the cell plate; mixed well and incubated for 6 hrs. DNA damage is induced with 2 mM H2O2 for 10 min. After discarding the medium, cells are fixed in ice cold Methanol at for 20 min at −20C. After a wash step at room temperature, cells are permeabilized with 0.05% NP-40 in PBS for 10 min, followed by wash steps. Cells are blocked with 1% BSA, at room temperature for 1 hr. Cells are stained with anti mono/polyADP ribose antibody (E6F6A, Cell signaling, 1:5000) in 1×PBS/1% BSA/0.05% Tween o/n at 4C.
Next Day, cells are washed and incubated with anti-Rabbit 800CV (Licor antibody, 1:500) and CellTag 700 (Licor, 1:800) in 1×PBS/1% BSA/0.05% Tween for 1 h. After washing, plates are scanned using LICOR and are quantified.
Parylation inhibition is reported as % control inhibition.
(§1) The letter codes for the PARP1-enzyme assay include: A (<1 nM), B (>1-10 nM), C (>10-100 nM), D (>100-1000 nM), E (>1000 nM), and “-” is not tested. The letter codes for the PARP trapping assay, and parylation assay include: A (<10 nM), B (>10-100 nM), C (>100-1000 nM), […], E (>10000 nM), and “-” is not tested.

[2] = test system: A2780 cells; assay: Cell proliferation assay (A2780); format: cell-based; conditions: 7 days
Procedure: (§2) Cells are counted, diluted to desired density and 40 μL of cell suspension is added into each 384-well tissue-culture treated plates. Plates are incubated in Tissue Culture incubator at 37° C./5% C02 overnight.
(§3) Next day, 40 nl test compounds that are prepared from source plates are transferred to the seeded cells from overnight. Plates are incubated at 37° C./5% C02 for a total of 7 days. After 7-day incubation, plates are equilibrated to room temperature and 30 ul of Cell Counting-Lite is added to each well for a 30 min incubation followed by reading on EnVision.
(§4) The letter codes for the cell proliferation assay in A2780, HCC1806, and MDA-MB-436 cells include: A (<10 nM), B (>10-100 nM), C (>100-1000 nM), D (>1000-10000 nM), E (>10000 nM), and “-” is not tested.

[3] = molecular target: T1, PARP1 (Homo sapiens, UniProt P09874); assay: PARP trapping assay in U2OS cells; format: cell-based; design: endogenous in cells; host or cells: U2OS; conditions: U2OS cells, MMS, 4 hrs; read-out: PARP Trapping (U2OS)
Procedure: U2OS cells are seeded at 15,000 cells/well in 90 ul medium and incubated in the TC incubator for overnight.
Next day, test compounds are prepared in a source plate along with addition of DNA damage reagent MMS simultaneously and 10 ul of the diluted mixture is added to the cell plate and incubated for 4 hrs under T/C conditions.
After 4 hrs, following aspiration and washing, add 100 ul of cold cytoskeleton removal buffer (0.5% Triton X-100) and incubated for 10 min. At the end of incubation, slowly the buffer is removed, and cells are fixed with ice cold MeOH for 15 min at −20C. Followed by wash steps, cells are blocked with 1×PBS/3% BSA/0.05% Tween for 1 h at room temperature.
Cells are stained with anti PARP1 antibody (abeam ab227244, 1:1000), in 1×PBS/1% BSA overnight at 4C.
Wash and add DAPI, scan cells in Celigo.
Data Analysis: DAPI staining is used to segment nuclei and AF488 fluorescence intensity per nucleus is measured.
as §1
Target sequence in this assay (P09874 whole entry): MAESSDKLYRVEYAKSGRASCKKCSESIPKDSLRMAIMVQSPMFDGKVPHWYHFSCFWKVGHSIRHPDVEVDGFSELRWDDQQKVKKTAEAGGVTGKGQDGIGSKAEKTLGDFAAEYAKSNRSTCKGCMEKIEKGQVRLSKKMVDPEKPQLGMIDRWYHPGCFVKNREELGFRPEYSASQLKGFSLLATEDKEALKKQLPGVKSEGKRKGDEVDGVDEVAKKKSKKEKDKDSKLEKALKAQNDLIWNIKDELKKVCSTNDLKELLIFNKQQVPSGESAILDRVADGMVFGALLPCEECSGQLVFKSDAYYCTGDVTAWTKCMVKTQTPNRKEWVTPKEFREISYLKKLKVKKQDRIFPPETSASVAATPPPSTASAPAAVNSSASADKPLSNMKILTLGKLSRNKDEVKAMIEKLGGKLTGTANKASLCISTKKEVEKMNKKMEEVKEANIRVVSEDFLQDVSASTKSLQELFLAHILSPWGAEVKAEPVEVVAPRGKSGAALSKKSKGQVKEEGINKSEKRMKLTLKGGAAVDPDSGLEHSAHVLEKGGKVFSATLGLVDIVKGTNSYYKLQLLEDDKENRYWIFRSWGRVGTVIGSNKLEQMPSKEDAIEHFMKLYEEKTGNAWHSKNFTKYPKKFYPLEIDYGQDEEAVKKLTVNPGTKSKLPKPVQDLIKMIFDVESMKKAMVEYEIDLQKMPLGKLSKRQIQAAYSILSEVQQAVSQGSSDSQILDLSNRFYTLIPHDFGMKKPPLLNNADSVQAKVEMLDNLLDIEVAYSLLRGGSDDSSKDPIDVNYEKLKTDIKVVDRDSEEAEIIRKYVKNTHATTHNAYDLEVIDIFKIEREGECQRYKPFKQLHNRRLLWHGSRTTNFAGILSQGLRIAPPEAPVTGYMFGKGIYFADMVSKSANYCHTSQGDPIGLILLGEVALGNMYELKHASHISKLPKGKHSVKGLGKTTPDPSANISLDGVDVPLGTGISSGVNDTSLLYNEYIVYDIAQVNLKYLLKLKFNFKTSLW

[4] = molecular target: T1, PARP1; assay: PARP1-enzyme assay (NAD/NADH-Glo biochemical assay); conditions: recombinant PARP1, NAD+ consumption
Procedure: The PARP enzyme catalyzes the transfer of ADP-Ribose from NAD+ onto PAR chains/histone substrates. The catalytic cycle is monitored indirectly with the NAD/NADH-Glo Assay kit from Promega. […] NAD+ consumed is determined by comparison to the no enzyme control.
• Recombinant PARP1 • NAD+/NAHD-Glow assay Kit • Activated DNA, 10 μg/mL • NAD+(Nicotinamide Adenine Dinucleotide), 500 nM • Protein substrate for PARP1: Core Histone from chicken, 10 μg/mL
as §1
Target sequence in this assay (P09874 whole entry, species assumed): as the sequence (P09874 whole entry) above

[5] = test system: MDA-MB-436 cells; assay: Cell proliferation assay (MDA-MB-436); format: cell-based; conditions: 7 days
Procedure: as §2, §3, §4

[6] = test system: HCC1806 cells; assay: Cell proliferation assay (HCC1806); format: cell-based; conditions: 7 days
Procedure: as §2, §3, §4

[7] = Homo sapiens, U2OS cells, 6 hrs, 2 mM H2O2

IC50 [1, 7] [nM] | IC50 ([2]; Homo sapiens, 168 h) [nM] | IC50 [3] [nM] | IC50 [4] [nM] | IC50 ([5]; Homo sapiens, 168 h) [nM] | IC50 ([6]; Homo sapiens, 168 h) [nM] | IC50 ([1]; U2OS cells, 6 hrs, 2 mM H2O2) [nM] | IC50 [2] [nM] | IC50 [6] [nM] | IC50 [5] [nM] | Compound | IC50 ([1]; Homo sapiens, U2OS, 6 h) [nM]
10 to 100 | 100 to 1000 | 100 to 1000 | < 1 | 10 to 100 |  |  |  |  |  | O=C(N[C@@H](C(=O)N1CCN(CC2CCN(CC(=O)N3CCN(C(=O)c4cc(Cc5n[nH]c(=O)c6ccccc56)ccc4F)CC3)CC2)CC1)C1CCCCC1)c1cc(C2CCCN(C(=O)CNCc3ccc(F)cc3F)C2)ccc1F (stereo partly shown) [Compound I-346] | 
100 to 1000 | 100 to 1000 | 100 to 1000 | < 1 | 10 to 100 |  |  |  |  |  | O=C(N[C@@H](C(=O)N1CCN(CC2CCN(CC(=O)N3CCN(C(=O)c4cc(Cc5n[nH]c(=O)c6ccccc56)ccc4F)CC3)CC2)CC1)C1CCCCC1)c1cccc(C2CCCN(C(=O)COC3CC3)C2)c1 (stereo partly shown) [Compound I-353] | 
10 to 100 | 10 to 100 | 10 to 100 |  | < 10 | 10 to 100 |  |  |  |  | CC1(C(=O)N2CCC(c3cccc(C(=O)N[C@@H](C(=O)N4CCC(OC5CCN(CC(=O)N6CCN(C(=O)c7cc(Cc8n[nH]c(=O)c9ccccc89)ccc7F)CC6)CC5)CC4)C4CCCCC4)c3F)CC2)CC1 [Compound I-883] | 
100 to 1000 | 10 to 100 | 10 to 100 |  | < 10 | 10 to 100 |  |  |  |  | CC1(C(=O)N2CC(c3cccc(C(=O)N[C@@H](C(=O)N4CCC(OC5CCN(CC(=O)N6CCN(C(=O)c7cc(Cc8n[nH]c(=O)c9ccccc89)ccc7F)CC6)CC5)CC4)C4CCCCC4)c3F)CCC2(C)C)CC1 (stereo partly shown) [Compound I-884] | 
100 to 1000 | 100 to 1000 | 10 to 100 |  | 10 to 100 | 100 to 1000 |  |  |  |  | CC1(OC2CCN(CC(=O)N3CCN(C(=O)c4cc(Cc5n[nH]c(=O)c6ccccc56)ccc4F)CC3)CC2)CCN(C(=O)[C@H](NC(=O)c2cccc(C3CCCN(C(=O)C45CC(C4)C5)C3)c2F)C2CCCCC2)CC1 (stereo partly shown) [Compound I-892] | 
100 to 1000 | 100 to 1000 | 10 to 100 |  | 10 to 100 | 100 to 1000 |  |  |  |  | CC1(OC2CCN(CC(=O)N3CCN(C(=O)c4cc(Cc5n[nH]c(=O)c6ccccc56)ccc4F)CC3)CC2)CCN(C(=O)[C@H](NC(=O)c2cccc(C3CCCN(C(=O)C4(C)CC4)C3)c2F)C2CCCCC2)CC1 (stereo partly shown) [Compound I-893] | 
10 to 100 | 10 to 100 | 10 to 100 |  | < 10 | 10 to 100 |  |  |  |  | CC(C)(C)OC(=O)N[C@@H](C(=O)N1C[C@H]2CC[C@@H](C1)[C@H]2OC1CCN(CC(=O)N2CCN(C(=O)c3cc(Cc4n[nH]c(=O)c5ccccc45)ccc3F)CC2)CC1)C1CCCCC1 [Compound I-990] | 
 |  | 10 to 100 |  |  |  | 10 to 100 | 10 to 100 | 10 to 100 | < 10 | CC(C)(C)OC(=O)N[C@@H](C(=O)NC12CCC(CN3CCC(C(=O)N4CCN(C(=O)c5cc(Cc6n[nH]c(=O)c7ccccc67)ccc5F)CC4)CC3)(CC1)OC2)C1CCCCC1 [Compound I-993] | 

Compound | IC50 [1, 7] [nM] | IC50 ([2]; Homo sapiens, 168 h) [nM] | IC50 [3] [nM] | IC50 [4] [nM] | IC50 ([5]; Homo sapiens, 168 h) [nM] | IC50 ([6]; Homo sapiens, 168 h) [nM] | IC50 ([1]; U2OS cells, 6 hrs, 2 mM H2O2) [nM] | IC50 [2] [nM] | IC50 [6] [nM] | IC50 [5] [nM] | IC50 ([1]; Homo sapiens, U2OS, 6 h) [nM]
O=C(N[C@@H](C(=O)N1CCN(CC(=O)N2CCN(C(=O)c3cc(Cc4n[nH]c(=O)c5ccccc45)ccc3F)CC2)CC1)C1CCCCC1)c1cccc(C2CCCN(C(=O)CNCc3ccc(F)cc3F)C2)c1 (stereo partly shown) [Compound I-963] |  | 100 to 1000 |  | < 1 | 100 to 1000 |  |  |  |  |  | 100 to 1000
CC(C)(C)C(=O)N1CCC[C@@H](c2cccc(C(=O)N[C@@H](C(=O)N3C4CCC3CC(OC3CCN(CC(=O)N5CCN(C(=O)c6cc(Cc7n[nH]c(=O)c8ccccc78)ccc6F)CC5)CC3)C4)C3CCCCC3)c2F)C1 (stereo partly shown) [Compound I-971] | 10 to 100 | 10 to 100 | 10 to 100 |  | < 10 | 100 to 1000 |  |  |  |  | 
